From PubChem BioAssay AID1996
Values after ≈ are worked out from the molar mass of the structure shown.

settings: buffer; pH 7.4; 200.0 µM

| solubility kinetic | Compound |
| --- | --- |
| 2.9 µg/mL (≈ 10.3 µM) | O=C(Nc1ccnc(-c2cccnc2)n1)c1cccs1 |
| 17.2 µg/mL (≈ 52.3 µM) | Cc1onc(-c2ccccc2Cl)c1C(=O)Nc1ccccc1O |
| > 42.3 µg/mL | COC(=O)[C@H](CC(C)C)NC(=O)Nc1ccc(F)cc1 |
| 5.3 µg/mL (≈ 23.7 µM) | COc1ccc2c(C(=O)CCl)c[nH]c2c1 |
| < 0.2 µg/mL | Oc1ccccc1Nc1nc(-c2ccccc2O)nc2ccccc12 |
| > 47 µg/mL | O=Cc1c(NCCCN2CCCC2=O)c2ccccc2[nH]c1=O |
| 35.9 µg/mL | Cl.OC(CNCC#Cc1ccccc1)c1ccccc1 (stereo unspecified) |
| > 51.8 µg/mL | CCOC(=O)c1cc2c(ccn2C)n1CC(=O)N1C(C)CCCC1C (stereo unspecified) |
| > 49.9 µg/mL | COc1ccc(CSCC(=O)Nc2ccccc2)cc1[N+](=O)[O-] |
| > 30.6 µg/mL | C1CNC(C23CC4CC(CC(C4)C2)C3)=N1 |
| > 61 µg/mL | N#Cc1ccc(CN2CCN(C(=O)C3CC(=O)N(c4ccccc4F)C3)CC2)cc1 (stereo unspecified) |
| > 46.9 µg/mL | Cc1c(-c2ccc(Cl)cc2)[n+](=O)c(-c2ccccc2)cn1[O-] |
| < 0.5 µg/mL | O=C1c2ccccc2-c2nc3ccccc3cc21 |
| 4.2 µg/mL (≈ 13.9 µM) | CSc1nccc(NC(=O)c2ccc(C(C)(C)C)cc2)n1 |
| > 54.8 µg/mL | CCCN(C(=O)Cc1coc2cc(OC)ccc12)C1CCS(=O)(=O)C1 (stereo unspecified) |
| > 33.6 µg/mL | Cn1c(=O)c2c(ncn2CCO)n(C)c1=O |
| > 35.1 µg/mL | O=C(Nc1ccccc1)OCc1cncs1 |
| > 42.3 µg/mL | O=C(Nc1cccc(C(F)(F)F)c1)c1cc[n+]([O-])cc1 |
| > 48.2 µg/mL | COC(=O)c1cn(Cc2cc(OC)ccc2OC)cc(F)c1=O |
| 1.2 µg/mL (≈ 3.72 µM) | Cc1c(Cl)cccc1NC(=S)NCCc1ccc(F)cc1 |
| 37.1 µg/mL | CCOc1ccc(CNC2CCCCCCC2)cc1OC.Cl |

| solubility kinetic | Compound |
| --- | --- |
| > 47.9 µg/mL | CCC(NC(=O)c1cncc(Br)c1)c1ccccc1 (stereo unspecified) |
| > 45.2 µg/mL | COCCNC(=O)Cn1nc(-c2ccc(C)cc2)ccc1=O |
| > 52.6 µg/mL | O=C(NCC(c1ccco1)N1CCCC1)c1ccc(-n2cccn2)cc1 (stereo unspecified) |
| 3 µg/mL (≈ 6.54 µM) | Cc1ccc(S(=O)(=O)N2CCOCC2)cc1NC(=O)COC(=O)c1ccc(Cl)s1 |
| 48.9 µg/mL (≈ 144 µM) | O=C1CC2(CC(c3ccc(Cl)cc3)=NO2)C(=O)N1c1ccccc1 (stereo unspecified) |
| 1.6 µg/mL (≈ 4.84 µM) | CCCSc1nc2c(c(=O)[nH]c(=O)n2C)n1Cc1ccccc1 |
| > 45 µg/mL | O=C(CCNC(=O)c1ccccc1)NCc1ccccc1F |
| > 37.5 µg/mL | COc1ccccc1NC(=O)CN1CCOCC1 |
| 1.6 µg/mL (≈ 4.65 µM) | Cc1ccc(C(=O)Nc2ccc(S(=O)(=O)N3CCCC3)cc2)cc1 |
| 36.3 µg/mL (≈ 136 µM) | CC(C)=CC(=O)OCC(=O)Nc1ccc(Cl)cc1 |
| > 34 µg/mL | CC1CCCCC1N=C1NC(C)(C)CS1 (stereo unspecified) |
| 2.7 µg/mL (≈ 8.25 µM) | COc1ccccc1C(=O)NCCOc1ccc(C(C)(C)C)cc1 |
| 43.8 µg/mL (≈ 132 µM) | CC(C)(C)c1cc(CCC(=O)N2CCCC2)cc(C(C)(C)C)c1O |
| 25.5 µg/mL (≈ 71.5 µM) | CCOC(=O)C1CCCN(c2c(NCCc3ccccc3)c(=O)c2=O)C1 (stereo unspecified) |
| > 47.3 µg/mL | COc1cc(C2SCC(=O)N2Cc2ccccc2)ccc1O (stereo unspecified) |
| 1.6 µg/mL (≈ 4.4 µM) | CCOCCOc1cccc(C(=O)NC(C)c2ccc3ccccc3c2)c1 (stereo unspecified) |
| 45.7 µg/mL (≈ 135 µM) | COc1ccc(OC)c(NC(=O)CCN2CCN(CCO)CC2)c1 |
| > 41.6 µg/mL | O=C(CSc1ncccn1)NCCC1=CCCCC1 |
| 39.1 µg/mL (≈ 142 µM) | COC(=O)COc1ccc(NC(=O)c2ccco2)cc1 |
| 34.1 µg/mL (≈ 127 µM) | COc1ccc(CN2C(=O)COc3ccccc32)cc1 |
| 50.8 µg/mL (≈ 141 µM) | Cc1ccc(C)c(S(=O)(=O)N2CCN(C(=O)c3cccnc3)CC2)c1 |

| solubility kinetic | Compound |
| --- | --- |
| 55.7 µg/mL (≈ 144 µM) | Cc1ccc(S(=O)(=O)N2CCCCCC2)cc1C(=O)NCc1ccccn1 |
| > 46 µg/mL | Cn1nc(C(=O)NNC(=O)c2cccc(Cl)c2)ccc1=O |
| > 46 µg/mL | O=C(CCNC(=O)c1ccc(Cl)cc1)NCc1ccco1 |
| > 49.9 µg/mL | CCOC(=O)C1=C(COC(=O)Cc2ccccc2)NC(=O)NC1C (stereo unspecified) |
| > 52.2 µg/mL | O=C(COC(=O)c1ccc([N+](=O)[O-])o1)NCc1ccc2c(c1)OCO2 |
| > 53 µg/mL | Cc1ccc(S(=O)(=O)N(C)CC(=O)N2CCC(C(N)=O)CC2)cc1 |
| > 42.8 µg/mL | Cc1ccc(S(=O)(=O)N2CC(O)CC2C(=O)O)cc1 (stereo unspecified) |
| 19.2 µg/mL (≈ 68 µM) | CN(C/C=C/c1ccccc1[N+](=O)[O-])Cc1ccccc1 |
| > 46.1 µg/mL | CCC(C)C(NC(N)=O)C(=O)Nc1ccc(C(=O)OC)cc1 (stereo unspecified) |
| > 31.8 µg/mL | CC(NCc1cccnc1)c1ccccc1 (stereo unspecified) |
| > 42.2 µg/mL | COc1ccccc1NC(=O)CSc1nncs1 |
| > 53.9 µg/mL | CC1CCN(C(=O)Cn2cc([N+](=O)[O-])ccc2=O)c2ccccc2S1 (stereo unspecified) |
| > 49.3 µg/mL | Cc1ccc(F)cc1NC(=O)CN1CCN(c2ccccn2)CC1 |
| > 50 µg/mL | O=C(COC(=O)CCC(=O)c1ccc(F)cc1)NCc1ccco1 |
| > 30.5 µg/mL | Cc1ccc(-c2ccc(CO)o2)cc1N |
| > 45.2 µg/mL | Oc1ccccc1Oc1ncc(Br)c(Cl)n1 |
| > 42.1 µg/mL | CC1CCN(C(=O)NC(=O)c2ccc(Cl)cc2)CC1 |
| 36.4 µg/mL (≈ 112 µM) | O=C(COC(=O)C1CCCCC1)Nc1cc([N+](=O)[O-])ccc1F |
| 9.3 µg/mL (≈ 30.9 µM) | O=C(COC(=O)c1ccco1)Nc1ccc2[nH]c(=O)[nH]c2c1 |
